Read-outs that look alike come from different tables or passages of the source.
Columns and labels:
Colon-Chip = experiment: IL-13 mediated enrichment of tuft cells in Colon-Chip; assay type: cell-based, human; settings: 10 ng/ml
Method: Stimulation: Exposure of Colon-Chips and ileal and colonic organoids (serve as a control) to 10 ng/ml of IL-13.
Read-outs: mRNA expression of genes specific for Tuft cells: Trpm5, ChAT, Dclkl and for goblet cells: Muc2, TFF3, etc., (to assess concomitant expansion of goblet cell populations) at day 2, 3 and 6 post-treatment corresponding to day 4, 5 and 8 of Colon-Chip culture.
IL-13 treatment has no negative impact of Colon-Chip tissue morphology and barrier function.
Summary of IL-13 mediated enrichment of the tuft cells in Colon-Chip. […] We performed stimulation of Colon-Chips with IL-13 in order to drive tuft cell differentiation and enrich for the presence of these cells in Intestine-Chip platform. […] In some embodiments, Gene expression levels of Tuft cell (Trpm5, ChAT) and goblet cell (Muc2, TFF3) specific markers are evaluated.

Colon Intestine-Chip = experiment: Barrier disruption/rescue assay in organoid-derived Colon Intestine-Chip (apparent permeability, 3 kDa dextran); assay type: cell-based, human
Method: As one example, to evaluate the integrity of the intestinal barrier 3 kDa Cascade Blue dextran (Sigma, D7132) was added to the epithelial compartment of the Duodenum-Chip at 0.1 mg/ml on the day of connecting a microfluidic device to flow, e.g., see exemplary timelines. Effluents of the endothelial compartment were sampled 3 hours after the addition of a dye, up to 24 hours, up to 48 hours, up to 72 hours, or at 48 hour intervals until the end of the assay, in order to determine the concentration of dye that has diffused through the membrane.
The apparent paracellular permeability (Papp) was calculated based on a standard curve and using the following formula: […]
In some embodiments, a microfluidic device as described herein, is used for an in vitro assay for evaluating a substance for its ability or efficacy of ‘rescuing’ barrier function. In some embodiments, a human intestine chip is used for an in vitro assay for evaluating a substance for ‘rescuing’ barrier function. In some embodiments, a human intestine chip is an organoids-derived colonic intestine chip. In some embodiments, Organoids-derived Colonic Epithelial Cells are seeded into one channel with Intestinal Microvascular Endothelial Cells seeded into an opposing channel separated by a membrane, as described herein. After seeding cells on Day 0, flow was initiated on Day 1 with stretch initiated on Day 2.
The following is an exemplary timeline for one embodiment of a Barrier Disruption/Rescue Assay, e.g. rescuing 3 hours of injury by a peptide substance, e.g. AT1002 (synthetic peptide H-FCIGRL-OH of ZO toxin) with AT1001, larzaride acetate. Day −5: experiment preparation (prep), as described herein; Day 0: Intestine chip seeding both cells types, epithelial and endothelial; Day 1 starting flow; Day 2 starting stretch, in some embodiments starting […] at lower levels then increasing up to 10% over 24 hours (1 day), over 2 days, or over 3 days; Day 5; starting Injury/Rescue Assay: using a known reversible injury inducing substance: Injure period starting at 0 hour continuing up to 3 hours, or more. Day 6 first readout time point (24 hours); Day 7, in some embodiments, Fix cells at 48 hours post injury; Days 7-21, in some embodiments, initiate at least one Endpoint Assay for analysis; and in some embodiments Day 21 is a report-out of assay. Exemplary check timepoints for readouts: 0, 24 and 48 hours after initiation of injury inducing substance. In some embodiments, Endpoint Assays and Analysis are done on Day 14. In some embodiments, Endpoint Assays and Analysis are done on Day 21. In some embodiments, a test substance for ‘rescuing’ damage may be evaluated within 14 days. In some embodiments, a test substance for ‘rescuing’ damage may be evaluated within 21 days from the beginning of cell culturing. […]

Caco-2 cell monolayers = settings: cited from earlier work
[1] = system: Mixed primary murine intestinal cultures; settings: 3 uM, 2 hours, GLP-1 active ELISA kit, Millipore, cited from earlier work
mouse CAR (mCAR) = target: T1, mouse CAR (mCAR) (Mus musculus, UniProt O35627); settings: cited from earlier work
T1 sequence (O35627 1-358): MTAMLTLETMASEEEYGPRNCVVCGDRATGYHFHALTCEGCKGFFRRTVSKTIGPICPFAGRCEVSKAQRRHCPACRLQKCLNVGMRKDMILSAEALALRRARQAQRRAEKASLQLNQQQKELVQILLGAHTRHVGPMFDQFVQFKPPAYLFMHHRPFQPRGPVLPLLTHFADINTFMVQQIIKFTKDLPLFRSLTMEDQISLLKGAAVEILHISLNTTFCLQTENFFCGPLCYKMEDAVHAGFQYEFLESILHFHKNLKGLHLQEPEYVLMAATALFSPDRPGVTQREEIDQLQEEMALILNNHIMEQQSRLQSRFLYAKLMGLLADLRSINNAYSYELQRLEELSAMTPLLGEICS

human CAR (hCAR) = target: T2, human CAR (hCAR) (Homo sapiens, UniProt Q14994); settings: cited from earlier work
T2 sequence (Q14994 1-352): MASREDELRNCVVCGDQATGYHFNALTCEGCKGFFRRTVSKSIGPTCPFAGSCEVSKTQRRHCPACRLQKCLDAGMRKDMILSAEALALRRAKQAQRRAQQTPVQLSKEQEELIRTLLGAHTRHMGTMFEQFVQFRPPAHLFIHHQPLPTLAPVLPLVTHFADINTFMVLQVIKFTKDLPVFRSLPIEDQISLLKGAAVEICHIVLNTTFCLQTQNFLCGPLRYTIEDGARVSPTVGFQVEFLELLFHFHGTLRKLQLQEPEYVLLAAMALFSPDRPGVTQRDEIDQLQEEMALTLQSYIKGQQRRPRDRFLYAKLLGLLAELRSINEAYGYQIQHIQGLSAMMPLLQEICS

human PXR (hPXR) = target: T3, human PXR (hPXR) (Homo sapiens, UniProt O75469); settings: cited from earlier work
T3 sequence (O75469 1-434): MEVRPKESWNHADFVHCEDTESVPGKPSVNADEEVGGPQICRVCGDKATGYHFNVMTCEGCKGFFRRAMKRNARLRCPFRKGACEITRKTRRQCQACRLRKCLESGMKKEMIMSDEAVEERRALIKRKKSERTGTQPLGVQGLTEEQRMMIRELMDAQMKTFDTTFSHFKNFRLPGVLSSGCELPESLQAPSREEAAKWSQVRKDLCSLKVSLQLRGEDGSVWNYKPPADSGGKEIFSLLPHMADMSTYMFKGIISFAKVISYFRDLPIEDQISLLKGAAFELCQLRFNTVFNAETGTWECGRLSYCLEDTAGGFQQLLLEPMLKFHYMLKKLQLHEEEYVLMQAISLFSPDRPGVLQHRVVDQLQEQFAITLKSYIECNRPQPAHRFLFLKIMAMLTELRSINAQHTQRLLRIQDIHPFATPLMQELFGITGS

mouse PXR (mPXR) = target: T4, mouse PXR (mPXR) (Mus musculus, UniProt O54915); settings: cited from earlier work
T4 sequence (O54915 1-431): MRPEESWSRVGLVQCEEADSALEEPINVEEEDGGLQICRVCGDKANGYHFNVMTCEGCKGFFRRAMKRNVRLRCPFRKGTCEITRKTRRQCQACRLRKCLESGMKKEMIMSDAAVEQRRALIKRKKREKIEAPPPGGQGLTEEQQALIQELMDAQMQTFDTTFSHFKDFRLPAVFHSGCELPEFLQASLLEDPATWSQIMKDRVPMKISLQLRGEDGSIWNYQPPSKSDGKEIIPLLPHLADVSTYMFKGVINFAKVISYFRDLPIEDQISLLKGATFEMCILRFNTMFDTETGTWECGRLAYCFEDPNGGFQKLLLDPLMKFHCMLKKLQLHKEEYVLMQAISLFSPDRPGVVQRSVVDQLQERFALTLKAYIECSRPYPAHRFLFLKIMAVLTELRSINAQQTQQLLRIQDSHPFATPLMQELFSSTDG

CYP3A4 [2] = system: CYP3A4
CYP3A4 [3] = system: CYP3A4; remark: listed apart in the source

## IL-13: cytokine used to drive tuft cell differentiation
Colon-Chip
  effect on Colon-Chip morphology and barrier function: no negative effect
  tuft cell population: Enrichment

## H-FCIGRL-OH [AT1002]
Colon Intestine-Chip; organoid-derived colon chip
  injury effect on barrier (apparent permeability, 3 KDa Dextran Cascade Blue): barrier disruption in a concentration-dependent manner
Caco-2 cell monolayers; Caco-2 cell monolayers
  lucifer yellow permeability: increase
  transepithelial electrical resistance (TEER): reversible reduction
Caco-2 cell monolayers
  cytotoxicity: no overt cytotoxicity

## Cc1onc(-c2ccccc2Cl)c1C(=O)N(C)c1ccc(Cl)cc1 [GPBAR-A]
[1]; in the presence of 10 mM glucose
  GLP-1 Concentration (fold increase) in the presence of 10 mM glucose: 3.5 fold increase
[1]
  GLP-1 Concentration (fold increase): 2.5 fold increase

## Larazotide acetate
Colon Intestine-Chip; 12.5 mM, IFN-gamma 25 ng/ml, 3 KDa Dextran Texas Red, N=5
  restoration of barrier integrity/function injured by IFN-gamma: partially restored/rescued
Colon Intestine-Chip; Colon Intestine-Chip exposed to AT1002, 20 mM, after 24 hours, N=5
  restore/rescue of barrier integrity: up to 100%
Caco-2 cell monolayers; apically applied
  increase in TJ permeability elicited by basolaterally applied cytokines: inhibited

## Clc1cnc(Oc2ccc(Oc3ncc(Cl)cc3Cl)cc2)c(Cl)c1 [TCPOBOP, 1,4-bis-[2-(3,5-dichloropyridyloxy)]benzene,3,3′.5.5′-tetrachloro-1,4-bis(pyridyloxy)benzene]
Mouse CAR (mCAR)
  selectivity mCAR versus hCAR: more selective for mCAR than hCAR

## Clc1ccc(-c2nc3sccn3c2C=NOCc2ccc(Cl)c(Cl)c2)cc1 [CITCO, 6-(4-chlorophenyl)imidazo[2,1-b][1,3]thiazole-5-carbaldehyde-O-(3,4-dichlorobenzyl)oxime]
Human CAR (hCAR)
  agonism at human CAR: strong agonist
Mouse CAR (mCAR)
  agonism at mouse CAR: not mouse CAR

## CC(=O)[C@H]1[C@H](C#N)C[C@H]2[C@@H]3CC=C4C[C@@H](O)CC[C@]4(C)[C@H]3CC[C@@]21C [PCN, 5-pregnen-3β-ol-20-one-16α-carbonitrile]
Human PXR (hPXR)
  agonism at human PXR: poor agonist
Mouse PXR (mPXR)
  agonism at mouse PXR: potent mPXR agonist

## C=C1/C(=C\C=C2/CCC[C@]3(C)[C@@H]([C@H](C)CCCC(C)(C)O)CC[C@@H]23)C[C@@H](O)C[C@@H]1O [VD3, 1,25-dihidroxyvitamin D3]
CYP3A4 [2]; Duodenum Intestine-Chip
  CYP3A4 drug metabolism activity: significantly increased
  CYP3A4 protein levels: significantly increased
CYP3A4 [2]; Duodenum-Chip, average of 3 donors, 20 μM RIF or 100 nM VD3, 48 h
  induction of CYP3A4 expression relative to DMSO-treated controls: 4.1 fold
CYP3A4 [3]; Caco-2 Intestine-Chip
  CYP3A4 induction (in words): induced
  metabolic activity of CYP3A4: no effect
CYP3A4 [3]; Caco-2 Intestine-Chip, listed as Vitamin D3
  CYP3A4 induction (in words): showed induction
CYP3A4 [3]; Caco-2 cells after inducer treatment
  CYP3A4 protein level (Western Blot): below the limit of detection
CYP3A4 [3]; Caco-2 cells, 100 nM, 48 h
  enhancement of CYP3A4 mRNA level: 316 fold

## IFN-gamma: injury inducing cytokine
Colon Intestine-Chip; 10 ng/ml - 50 ng/ml, 48 hours, 3 KDa Dextran Cascade Blue
  permeability of Colon Intestine Chip: increases post 48 hours independent of IFN-gamma concentrations tested

## CCOP(=O)(OCC)C(=Cc1cc(C(C)(C)C)c(O)c(C(C)(C)C)c1)P(=O)(OCC)OCC [SR12813]
Mouse PXR (mPXR)
  agonism at mouse PXR: not for mouse PXR

— patent publication US20200224136A1, “INTESTINE-CHIP: DIFFERENTIAL GENE EXPRESSION MODEL” (priority 2019, published 2020)
